From article PMC9032385, “A2A Adenosine Receptor Antagonists: Are Triazolotriazine and Purine Scaffolds Interchangeable?” (Molecules, 2022)

How the values were obtained:
[1] = test system: BV-2 murine microglial cells; test: RT-PCR expression of inflammatory mediators in LPS-activated BV-2 cells; format: cell-based
Description: BV-2 cells were treated with 13 or ANR 94 (10 nM) and activated with 100 ng/mL LPS for 24 h. Total RNA was isolated, and proinflammatory cytokine and enzyme expressions were measured using RT-PCR (Figure 5).
(§1) Cell Cultures and Treatments: BV-2 murine microglial cells (a gift from Prof. Elisabetta Blasi of the University of Modena and Reggio Emilia, Modena, Italy) were maintained at 37 °C and 5% CO2 in a humidified incubator and grown in DMEM supplemented with 10% (v/v) low-endotoxin fetal bovine serum (Euroclone—Milan, Italy), 2 mM L-glutamine, 50 U/mL penicillin, and 50 μg/mL streptomycin (Sigma-Aldrich–Merck, Milan, Italy). Cells were seeded at 50,000 cells/mL in 96-well tissue culture plates for the viability assay, in 6-well tissue culture plates for the Griess assay and RT-PCR assay. BV-2 cells were treated for 24 h with ANR 94 or 13 at different concentrations and then exposed to LPS (100 ng/mL; Sigma-Aldrich–Merck) for a further 24 h.
Real-Time Polymerase Chain Reaction (PCR): At the end of the experiments, total RNA was extracted by BV-2 cells using RNeasy Mini Kit (QIAGEN GmbH, Hilden, Germany). RNA concentraion and quality were measured on a NanoVue Spectrophotometer (GE Healthcare, Milano, Italy). iScript cDNA Synthesis Kit (Bio-Rad, Hercules, CA, USA) was used to synthesize cDNA starting from the extracted RNA, following the supplier’s instructions. PCR was performed by adding 2.5 μL (12.5 ng) of cDNA, 5 μL SsoAdvanced Universal SYBR Green Supermix (Bio-Rad), and 0.5 μL (500 nM) of each primer (Table 2) to a PCR tube. cDNA amplification was started at 95 °C for 30 s to activate the polymerase, followed by 40 cycles of 5 s at 95 °C and 30 s at 60 °C. Normalized expression levels were calculated relative to the control cells according to the 2^−ΔΔCT method.

[2] = test system: BV-2 murine microglial cells; test: MTT viability assay in BV-2 cells; format: cell-based; details: 24 h, 50–5000 nM, up to 5 μM
Description: First of all, we verified the potential cytotoxicity of 13 in our cell model system. BV-2 cells were treated with increasing concentrations of the compound for 24 h and cell viability was evaluated by MTT assay (Figure 4A).
as §1
MTT Viability Assay: MTT assay was performed to quantify the viability of BV-2 cells as previously reported. […] The absorbance was measured at 595 nm using a microplate spectrophotometer (VICTOR3 V Multilabel Counter; PerkinElmer, Wellesley, MA, USA). Data are expressed as a percentage of the control cells, which is considered 100% cell viability.

[3] = 10 nM for 24 h, then 100 ng/mL LPS 24 h

Question: With CCn1c(-c2ccco2)nc2c(N)nc(NCCc3ccc(O)cc3)nc21 [compound 13, 4-(2-((6-Amino-9-ethyl-8-(furan-2-yl)-9H-purin-2-yl)amino)ethyl)phenol] as the compound, how does the “IL-10 mRNA expression” value ([1]; 10 nM before 100 ng/mL LPS 24 h) read?
Answer: Its value is “maintained IL-10 expression to a level comparable to the control cells”.

Question: What about the “COX-2 mRNA expression vs LPS” value [1, 3] of the same compound?
Answer: Its value is “significantly reduced the expression”.

Question: What about the “IL-1β mRNA expression vs LPS” value [1, 3] of the same compound?
Answer: Its value is “significantly reduced the expression”.

Question: What about the “IL-6 mRNA expression vs LPS” value [1, 3] of the same compound?
Answer: Its value is “significantly reduced the expression”.

Question: And the “iNOS mRNA expression vs LPS” value [1, 3]?
Answer: Its value is “significantly reduced the expression”.

Question: And the “NLRP3 mRNA expression vs LPS” value ([1]; 10 nM pre-treatment, 100 ng/mL LPS 24 h)?
Answer: Its value is “significantly reduced”.

Question: What about the “cytotoxicity (cell viability, MTT)” value [2] of the same compound?
Answer: The value was “did not show any cytotoxicity”.
